{"source": "patent US6576266B1", "about": "“Plant extract based on glycerides, a method for the preparation of this extract and a cosmetic composition containing the same” (Sodic SA, priority 1999, dated 2003)", "key": {"[1]": {"test_system": "reduction of cytochrome c (xanthin oxidase)", "experiment": "Radical scavenging: slowing-down of the reduction of cytochrome c (Fridovitch and McCord)", "format": "biochemical", "conditions": "0.6315 mg/ml, phosphate buffer pH 7.8, 25° C.", "source_text": "The experimental method is based on the procedure developed in 1973 by Fridovitch and McCord for SOD (J. Biol. Chem. 248, 2648).\nThe determination of the radical scavenging properties is based on the measurement of the inhibition or of the slowing-down of the reduction of cyto-chrome c by the product investigated, by comparison with the effect exerted by xanthin oxidase. The formation of reduced cytochrome c is monitored by spectrophotometry at 550 nm.\nIn these tests, a plant extract powder of the invention is used at a concentration of 1.5 mg/ml in a phosphate buffer pH 7.8 at 25° C.\nFurthermore, an additional test was carried out with Dgdg alone, in the same conditions as above, but using the Fluka 36975 product having a purity of 95%."}, "[2]": {"target": "T1, elastase of human leukocytes (EHL) (Homo sapiens, UniProt P08246)", "T1 sequence (P08246 30-267)": "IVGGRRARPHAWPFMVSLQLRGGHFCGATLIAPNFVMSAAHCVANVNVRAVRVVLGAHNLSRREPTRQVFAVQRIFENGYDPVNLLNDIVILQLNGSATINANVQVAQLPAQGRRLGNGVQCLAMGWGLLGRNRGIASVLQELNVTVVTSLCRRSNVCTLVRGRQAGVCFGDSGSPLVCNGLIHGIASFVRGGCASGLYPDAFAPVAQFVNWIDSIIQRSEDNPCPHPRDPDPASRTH", "experiment": "Inhibitory action against elastase (synthetic substrate, spectrophotometry at 405 nm)", "format": "biochemical", "procedure": "It was of interest to investigate the inhibitory action against elastase by the powder extract of the invention and to compare it with that of ceramide 3 alone.\nThe inhibitory action of the powder extract of the invention against EHL was examined in an aqueous solution of a Tris-HCl buffer, using N-methoxysuccinyl-alanyl-alanyl-prolyl-valyl-para-nitroanilide as a synthetic substrate.\nThe kinetics of the reaction were determined by spectrophotometry at 405 nm, enabling the measurement of the release of para-nitroanilide, which is a coloured product. The percent inhibitory action of the preparation against the elastase was determined by comparison with a reference curve (hydrolysis of the substrate in the absence of an inhibitor)."}}}
{"substance": "2,3-di-O-(fatty acid acyl)-1-O-[6′-O-α-D-galactopyranosyl-β-galactopyranosyl]-D-glycerine [Dgdg]", "values": [{"measurement": "Slowing-down of the reduction of cytochrome c", "setting": "[1]", "result": 36.1, "unit": "%"}, {"measurement": "Inhibitory activity against elastase (in words)", "setting": "[2]", "result": "practically no inhibitory activity"}]}
